Results from PMC6457190, “Tridecaptin-inspired antimicrobial peptides with activity against multidrug-resistant Gram-negative bacteria” (MedChemComm, 2019).
Where a SMILES comes first, the peptide text is derived from it. [ ]: non-standard residue; d: D form. The star is where a group is joined. d(aIle) = CC[C@H](C)[C@@H](N)C(=O)O; dOrn = NCCC[C@@H](N)C(=O)O; dDab = NCC[C@@H](N)C(=O)O; Octanoyl = CCCCCCCC(=O)*; Orn = NCCC[C@H](N)C(=O)O

Key:
A. baumannii ACM 11 = assay type: cell-based, Acinetobacter baumannii; conditions: ACM 11, 18 h
Description: (§1) IV. Antimicrobial testing
(§2) All minimum inhibitory concentrations (MICs) were determined according to Clinical and Standards Laboratory Institute (CLSI) guidelines. Briefly, peptides were dissolved in Muller-Hinton Broth (MHB) and serial dilutions made across a 96 well plate. Each well was inoculated with a suspension of the required bacterial strain to reach a final inoculum of 5 x 10^5 colony forming units per mL. The MIC was taken as the lowest concentration with no visible growth after 18 hours.
(§3) V. Additional information on multidrug resistant strains
(§4) Organism Resistant Susceptible
(§5) Acinetobacter baumannii ACM 11 Ceftazimide

A. baumannii = assay type: cell-based, Acinetobacter baumannii; conditions: 18 h
Description: as §1, §2, §3, §4
Acinetobacter baumannii Cefotaxime Imipenem
Isolated from sewage contaminated Tetracycline Colistin water (Tripoli, Lebanon). Ofloxacin Tobramycin
as §5
(§6) Acinetobacter baumannii ACM 29 Ceftazimide
(§7) Isolated from peritoneum of 3-year- Imipenem

Equine erythrocytes = assay type: cell-based, horse; conditions: red cells of equine, 100 μg mL^–1
Description: Having assessed the antimicrobial activity of peptides 1–8 we next proceeded to assess their haemolytic activities (Table 2). Haemolytic activity was tested at 100 μg mL^–1, as the concentration required for haemolysis should be higher than antimicrobial MICs. Equine erythrocytes were exposed to peptides 1–8 and incubated for 30 min at 37 °C (Table 2). […] The low haemolytic activity observed for Oct-TriA2 (2,8-D-Lys, 7-Lys) (8) is consistent with its poor antimicrobial activity. […]
VI. Haemolytic activity assays
A 96-well plate was first prepared to contain phosphate-buffered saline (PBS) solutions (100 μL) of tridecaptin analogues 1 – 8 (200 μg/mL) (experiments run in triplicate). 0.1 % Triton X-100 (100 μL) was used as a positive control, while PBS (100 μL) was used as a blank. After the plate had been prepared, defibrinated horse blood (0.5 mL, VWR International) was diluted with phosphate-buffered saline (9.5 mL) and gently shaken. The resulting mixture was centrifuged (5600 rpm, 5 min) using a Thermo Scientific Heraeus Labofuge 200 centrifuge and the supernatant carefully removed. This process was repeated three more times to remove any free hemoglobin. The resulting erythrocyte pellet was gently resuspended in 9.5 mL of PBS. Aliquots of the resulting mixture (100 μL) were added to the appropriate wells on the 96-well plate using a multichannel pipette and the plate incubated at 37 °C for 30 min. The samples were gently mixed by pipetting, and 20 μL of each was added to 200 μL of PBS. Once again, the samples were gently mixed. The diluted samples were then centrifuged (7000 rpm, 5 min) using a SciSpin MINI Microfuge. Supernatant (150 μL) from each sample was added to a new 96-well plate. The absorbance of each sample was individually measured at 415 nm using a Denovix DS-11 FX+ Spectrophotometer. Percent hemolysis of the peptides was calculated relative to Triton X- 100, while the PBS negative control was used as a blank.

K. pneumoniae IMP 204 = assay type: cell-based, Klebsiella pneumoniae; conditions: IMP 204, 18 h
Description: as §1, §2

K. pneumoniae = assay type: cell-based, Klebsiella pneumoniae; conditions: 18 h
Description: as §1, §2

K. pneumoniae IMP 177 = assay type: cell-based, Klebsiella pneumoniae; conditions: IMP 177, 18 h
Description: as §1, §2

K. pneumoniae IMP 170 = assay type: cell-based, Klebsiella pneumoniae; conditions: IMP 170, 18 h
Description: as §1, §2

K. pneumoniae IMP 485 = assay type: cell-based, Klebsiella pneumoniae; conditions: IMP 485, 18 h
Description: as §1, §2

K. pneumoniae IMP 216 = assay type: cell-based, Klebsiella pneumoniae; conditions: IMP 216, 18 h
Description: as §1, §2

A. baumannii ACM 29 = assay type: cell-based, Acinetobacter baumannii; conditions: ACM 29, 18 h
Description: as §1, §2
V. Additional information on multidrug resistant strains […]
Organism Resistant Susceptible […]
as §6, §7

E. cloacae = assay type: cell-based, Enterobacter cloacae; conditions: 18 h
Description: as §1, §2

P. pseudoalcaligenes = assay type: cell-based, Pseudomonas pseudoalcaligenes; conditions: for Peptide MIC: 18 h; for antimicrobial activity relative to Oct-TriA1: against P. pseudoalcaligenes
Description: as §1, §2

[1] = test system: panel of Gram-negative bacteria; assay: MIC, summary over the panel of strains; assay type: cell-based; conditions: highest concentration tested 100 μg mL^–1, all strains of the panel
From the text: Previous studies have shown that the tridecaptins have strong activity against clinically relevant Gram-negative strains.[8],[14] This includes A. baumannii and Enterobacteriaceae such as Klebsiella pneumoniae and Enterobacter spp., however P. aeruginosa is less susceptible. The World Health Organization (WHO) currently lists carbapenemase-producing strains of these Gram-negative bacteria as critical priority pathogens. We therefore decided to synthesize a library of novel tridecaptin analogues containing conservative substitutions at positions 2, 7, 8 and/or 12, and evaluate their activity against a panel of these strains (Table 1). This panel of Gram-negative bacteria contains environmental samples isolated from sewage contaminated water in Lebanon, as well as several strains isolated from patients at clinical settings. […]
MilliQ water and solvent B = 0.1 % TFA in ACN. […] High resolution mass spectrometry (HRMS) spectra of all peptides were recorded by Analytical Services and Environmental Projects (ASEP) at Queen’s University Belfast on a Waters LCT Premier ToF mass spectrometer using the electrospray ionisation (ESI) technique. […]
All minimum inhibitory concentrations (MICs) were determined according to Clinical and Standards Laboratory Institute (CLSI) guidelines. […]

SMILES: CCCCCCCC(=O)N[C@@H](C(=O)N[C@H](CCCCN)C(=O)NCC(=O)N[C@H](CO)C(=O)N[C@H](Cc1c[nH]c2ccccc12)C(=O)N[C@@H](CO)C(=O)N[C@@H](CCCCN)C(=O)N[C@H](CCN)C(=O)N[C@@H](Cc1ccccc1)C(=O)N[C@@H](CCC(=O)O)C(=O)N[C@H](C(=O)N[C@@H](C(=O)N[C@@H](C)C(=O)O)[C@@H](C)CC)C(C)C)C(C)C [Peptide 4, Oct-TriA1 (2-D-Lys, 7-Lys)] (Octanoyl-[dV][dK]G[dS][dW]SK[dDab]FEV[d(aIle)]A-OH)
- Peptide MIC (A. baumannii ACM 11): 25 μg mL^–1
- Peptide MIC (A. baumannii): 50 μg mL^–1
- % haemolysis (Equine erythrocytes): 71.4%
- Peptide MIC (K. pneumoniae IMP 204): 25 μg mL^–1
- Peptide MIC (K. pneumoniae): 50 μg mL^–1
- Peptide MIC (K. pneumoniae IMP 177): 25 μg mL^–1
- Peptide MIC (K. pneumoniae IMP 170): 25 μg mL^–1
- Peptide MIC (K. pneumoniae IMP 485): 25 μg mL^–1
- Peptide MIC (K. pneumoniae IMP 216): 25 μg mL^–1
- Peptide MIC (A. baumannii ACM 29): 50 μg mL^–1
- Peptide MIC (E. cloacae): 25 μg mL^–1
- Peptide MIC (P. pseudoalcaligenes): 25 μg mL^–1
- antimicrobial activity relative to Oct-TriA1 (P. pseudoalcaligenes): enhanced antimicrobial activity

SMILES: CCCCCCCC(=O)N[C@@H](C(=O)N[C@H](CCCCN)C(=O)NCC(=O)N[C@H](CO)C(=O)N[C@H](Cc1c[nH]c2ccccc12)C(=O)N[C@@H](CO)C(=O)N[C@@H](CCCCN)C(=O)N[C@H](CCCCN)C(=O)N[C@@H](Cc1ccccc1)C(=O)N[C@@H](CCC(=O)O)C(=O)N[C@H](C(=O)N[C@@H](C(=O)N[C@@H](C)C(=O)O)C(C)C)C(C)C)C(C)C [Peptide 8, Oct-TriA2 (2,8-D-Lys, 7-Lys)] (HELM PEPTIDE1{[CCCCCCCC(=O)[*:2]].[dV].[dK].G.[dS].[dW].S.K.[dK].F.E.V.[dV].A}$$$$V2.0)
- Peptide MIC (A. baumannii ACM 11): >100 μg mL^–1
- Peptide MIC (A. baumannii): >100 μg mL^–1
- % haemolysis (Equine erythrocytes): 2.8%
- Peptide MIC (K. pneumoniae IMP 204): >100 μg mL^–1
- Peptide MIC (K. pneumoniae): >100 μg mL^–1
- Peptide MIC (K. pneumoniae IMP 177): >100 μg mL^–1
- Peptide MIC (K. pneumoniae IMP 170): >100 μg mL^–1
- Peptide MIC (K. pneumoniae IMP 485): >100 μg mL^–1
- Peptide MIC (K. pneumoniae IMP 216): >100 μg mL^–1
- Peptide MIC (A. baumannii ACM 29): >100 μg mL^–1
- Peptide MIC (E. cloacae): >100 μg mL^–1
- Peptide MIC (P. pseudoalcaligenes): >100 μg mL^–1
- antimicrobial activity at the highest concentrations tested [1]: no antimicrobial activity

SMILES: CCCCCCCC(=O)N[C@@H](C(=O)N[C@H](CCCN)C(=O)NCC(=O)N[C@H](CO)C(=O)N[C@H](Cc1c[nH]c2ccccc12)C(=O)N[C@@H](CO)C(=O)N[C@@H](CCCN)C(=O)N[C@H](CCCN)C(=O)N[C@@H](Cc1ccccc1)C(=O)N[C@@H](CCC(=O)O)C(=O)N[C@H](C(=O)N[C@@H](C(=O)N[C@@H](C)C(=O)O)[C@@H](C)CC)C(C)C)C(C)C [Peptide 5, Oct-TriA1 (2,8-D-Orn, 7-Orn)] (Octanoyl-[dV][dOrn]G[dS][dW]S[Orn][dOrn]FEV[d(aIle)]A-OH)
- Peptide MIC (A. baumannii ACM 11): 50 μg mL^–1
- Peptide MIC (A. baumannii): 12.5 μg mL^–1
- % haemolysis (Equine erythrocytes): 77.5%
- Peptide MIC (K. pneumoniae IMP 204): 25 μg mL^–1
- Peptide MIC (K. pneumoniae): 12.5 μg mL^–1
- Peptide MIC (K. pneumoniae IMP 177): 25 μg mL^–1
- Peptide MIC (K. pneumoniae IMP 170): 25 μg mL^–1
- Peptide MIC (K. pneumoniae IMP 485): 25 μg mL^–1
- Peptide MIC (K. pneumoniae IMP 216): 6.25 μg mL^–1
- Peptide MIC (A. baumannii ACM 29): 50 μg mL^–1
- Peptide MIC (E. cloacae): 6.25 μg mL^–1
- Peptide MIC (P. pseudoalcaligenes): 50 μg mL^–1

SMILES: CCCCCCCC(=O)N[C@@H](C(=O)N[C@H](CCCCN)C(=O)NCC(=O)N[C@H](CO)C(=O)N[C@H](Cc1c[nH]c2ccccc12)C(=O)N[C@@H](CO)C(=O)N[C@@H](CCCCN)C(=O)N[C@H](CCCCN)C(=O)N[C@@H](Cc1ccccc1)C(=O)N[C@@H](CCC(=O)O)C(=O)N[C@H](C(=O)N[C@@H](C(=O)N[C@@H](C)C(=O)O)[C@@H](C)CC)C(C)C)C(C)C [Peptide 6, Oct-TriA1 (2,8-D-Lys, 7-Lys)] (HELM PEPTIDE1{[CCCCCCCC(=O)[*:2]].[dV].[dK].G.[dS].[dW].S.K.[dK].F.E.V.[CC[C@H](C)[C@@H](N[*:1])C(=O)[*:2]].A}$$$$V2.0)
- Peptide MIC (A. baumannii ACM 11): 25 μg mL^–1
- Peptide MIC (A. baumannii): 6.25 μg mL^–1
- % haemolysis (Equine erythrocytes): 86.4%
- Peptide MIC (K. pneumoniae IMP 204): 50 μg mL^–1
- Peptide MIC (K. pneumoniae): 50 μg mL^–1
- Peptide MIC (K. pneumoniae IMP 177): 25 μg mL^–1
- Peptide MIC (K. pneumoniae IMP 170): 50 μg mL^–1
- Peptide MIC (K. pneumoniae IMP 485): 25 μg mL^–1
- Peptide MIC (K. pneumoniae IMP 216): 25 μg mL^–1
- Peptide MIC (A. baumannii ACM 29): 25 μg mL^–1
- Peptide MIC (E. cloacae): 25 μg mL^–1
- Peptide MIC (P. pseudoalcaligenes): 100 μg mL^–1

SMILES: CCCCCCCC(=O)N[C@@H](C(=O)N[C@H](CCCN)C(=O)NCC(=O)N[C@H](CO)C(=O)N[C@H](Cc1c[nH]c2ccccc12)C(=O)N[C@@H](CO)C(=O)N[C@@H](CCCN)C(=O)N[C@H](CCN)C(=O)N[C@@H](Cc1ccccc1)C(=O)N[C@@H](CCC(=O)O)C(=O)N[C@H](C(=O)N[C@@H](C(=O)N[C@@H](C)C(=O)O)[C@@H](C)CC)C(C)C)C(C)C [Peptide 3, Oct-TriA1 (2-D-Orn, 7-Orn)] (Octanoyl-[dV][dOrn]G[dS][dW]S[Orn][dDab]FEV[d(aIle)]A-OH)
- Peptide MIC (A. baumannii ACM 11): 50 μg mL^–1
- Peptide MIC (A. baumannii): 100 μg mL^–1
- % haemolysis (Equine erythrocytes): 66.7%
- Peptide MIC (K. pneumoniae IMP 204): 25 μg mL^–1
- Peptide MIC (K. pneumoniae): 100 μg mL^–1
- Peptide MIC (K. pneumoniae IMP 177): 25 μg mL^–1
- Peptide MIC (K. pneumoniae IMP 170): 25 μg mL^–1
- Peptide MIC (K. pneumoniae IMP 485): 25 μg mL^–1
- Peptide MIC (K. pneumoniae IMP 216): 25 μg mL^–1
- Peptide MIC (A. baumannii ACM 29): 50 μg mL^–1
- Peptide MIC (E. cloacae): 25 μg mL^–1
- Peptide MIC (P. pseudoalcaligenes): 12.5 μg mL^–1
- antimicrobial activity relative to Oct-TriA1 (P. pseudoalcaligenes): enhanced antimicrobial activity
